{"source": "paper PMC10859541", "about": "(Journal of Pharmaceutical Analysis, 2023)", "test_in_all_cases": "biolayer interferometry", "type_in_all_cases": "binding", "key": {"metadherin (MTDH) [1]": {"target": "T1, metadherin (MTDH) (Homo sapiens, UniProt Q86UE4)", "T1 sequence (Q86UE4 1-582)": "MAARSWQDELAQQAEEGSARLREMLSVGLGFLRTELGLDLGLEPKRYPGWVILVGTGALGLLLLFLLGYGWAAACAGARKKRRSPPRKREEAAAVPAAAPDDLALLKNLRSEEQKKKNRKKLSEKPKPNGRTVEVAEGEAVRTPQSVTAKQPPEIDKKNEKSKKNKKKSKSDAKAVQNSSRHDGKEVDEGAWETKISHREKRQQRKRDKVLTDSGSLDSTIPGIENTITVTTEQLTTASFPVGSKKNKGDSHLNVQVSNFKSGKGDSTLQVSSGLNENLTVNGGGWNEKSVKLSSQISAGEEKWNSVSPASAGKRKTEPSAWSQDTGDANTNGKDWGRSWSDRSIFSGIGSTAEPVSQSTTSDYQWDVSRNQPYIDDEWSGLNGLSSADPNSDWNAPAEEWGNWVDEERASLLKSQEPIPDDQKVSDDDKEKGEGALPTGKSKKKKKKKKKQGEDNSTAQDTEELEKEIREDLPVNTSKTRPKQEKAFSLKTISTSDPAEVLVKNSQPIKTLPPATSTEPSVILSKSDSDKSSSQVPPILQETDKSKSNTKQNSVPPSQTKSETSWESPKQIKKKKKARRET"}, "[2]": {"target": "T2, PX domain containing serine/threonine kinase-like (PXK) (Homo sapiens, UniProt Q7Z7A4)", "T2 sequence (Q7Z7A4 1-578)": "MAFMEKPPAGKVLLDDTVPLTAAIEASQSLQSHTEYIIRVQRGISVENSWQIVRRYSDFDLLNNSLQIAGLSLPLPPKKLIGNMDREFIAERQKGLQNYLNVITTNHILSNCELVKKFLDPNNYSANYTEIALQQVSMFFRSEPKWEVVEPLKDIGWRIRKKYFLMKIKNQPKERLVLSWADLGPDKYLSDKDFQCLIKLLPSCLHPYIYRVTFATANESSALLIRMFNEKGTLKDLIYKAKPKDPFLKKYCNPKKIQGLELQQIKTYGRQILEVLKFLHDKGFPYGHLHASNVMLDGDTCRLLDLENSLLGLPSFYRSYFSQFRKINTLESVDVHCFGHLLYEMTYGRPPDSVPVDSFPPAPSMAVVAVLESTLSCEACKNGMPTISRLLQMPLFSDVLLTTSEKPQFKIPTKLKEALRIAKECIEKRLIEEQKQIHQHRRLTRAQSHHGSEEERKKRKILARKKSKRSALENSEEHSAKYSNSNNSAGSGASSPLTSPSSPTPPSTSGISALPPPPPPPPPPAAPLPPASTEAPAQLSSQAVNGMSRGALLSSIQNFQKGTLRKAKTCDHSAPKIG"}, "[3]": {"target": "T2, PX domain containing serine/threonine kinase-like (PXK)", "remark": "listed apart in the source"}, "metadherin (MTDH) [4]": {"target": "T1, metadherin (MTDH)", "remark": "listed apart in the source"}}, "note": "Like-named read-outs stand apart in the source and are kept apart here."}
{"smiles": "CC(=O)Oc1cc(OC(C)=O)c2c(c1)O[C@H](c1cc(OC(C)=O)c(OC(C)=O)c(OC(C)=O)c1)[C@H](OC(=O)c1cc(OC(C)=O)c(OC(C)=O)c(OC(C)=O)c1)C2", "note": "[ProEGCG]", "values": [{"measurement": "Kd", "setting": "metadherin (MTDH) [1]", "value": 517, "unit": "µM"}, {"measurement": "Kd", "setting": "[2]", "value": 1700, "unit": "µM"}]}
{"smiles": "O=C(O[C@@H]1Cc2c(O)cc(O)cc2O[C@@H]1c1cc(O)c(O)c(O)c1)c1cc(O)c(O)c(O)c1", "note": "[EGCG]", "values": [{"measurement": "Kd", "setting": "[3]", "value": 2420, "unit": "µM"}, {"measurement": "Kd", "setting": "metadherin (MTDH) [4]", "value": 0.27, "unit": "µM"}]}
